Measured values as given in patent US12653191B2, “Active compound combinations” (Bayer Aktiengesellschaft, priority 2020, dated 2026).
Where two headings read alike, the source gives them in different places.

How the values were obtained:
Diaporthe citri [1] = assay: in vitro-Test with fungal microorganisms, Method A (tables F1-F11); type: cell-based; conditions: Diaporthe citri
Summary of the method: (§1)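 Readout: extinction at 620 nm, measured at start and again 3-5 days later, giving efficacy versus untreated control (0% = control growth, 100% = no growth). Compounds were evaporated from methanol/emulsifier before adding potato dextrose medium with fungal spores or mycelium; incubation 20° C, 85% RH.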

Fusarium culmorum [2] = assay: in vitro-Test with fungal microorganisms, Method A (tables G1-G4); type: cell-based; conditions: Fusarium culmorum, alone, read-out: Efficacy
Summary of the method: as §1

Parastagonospora nodorum [3] = assay: in vitro-Test with fungal microorganisms, Method B (tables H5-H8); type: cell-based; conditions: Parastagonospora nodorum
Summary of the method: (§2)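 Efficacy scale: 0% means growth equal to the untreated control, 100% means none detected. Compounds are dried from methanol with emulsifier before adding inoculated growth medium; incubation at 20° C., 85% relative humidity for 3 to 7 days precedes photometric inhibition readout.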

Parastagonospora nodorum [4] = assay: in vitro-Test with fungal microorganisms, Method A (tables H1-H4); type: cell-based
Summary of the method: as §1

Cercospora beticola [5] = assay: in vitro-Test with fungal microorganisms, Method A (tables C1-C10); type: cell-based
Summary of the method: as §1

Cordana musae [6] = assay: in vitro-Test with fungal microorganisms, Method B (tables E9-E16); type: cell-based; conditions: for Efficacy %: single substance
Summary of the method: as §2

Colletotrichum coccodes = assay: in vitro-Test with fungal microorganisms, Method B (tables J1-J11); type: cell-based; conditions: Colletotrichum coccodes
Summary of the method: as §2

[7] = test system: Ustilago segetum var. avenae; assay: in vitro-Test with fungal microorganisms, Method A (tables I1-I5); type: cell-based
Summary of the method: as §1

Alternaria alternata = assay: in vitro-Test with fungal microorganisms, Method B (tables A13-A22); type: cell-based; conditions: Alternaria alternata
Summary of the method: as §2

[8] = test system: Colletotrichum lindemuthianum; assay: in vitro-Test with fungal microorganisms, Method A (tables D1-D8); type: cell-based; conditions: Colletotrichum lindemuthianum
Summary of the method: as §1

[9] = test system: Ustilago segetum var. avenae; assay: in vitro-Test with fungal microorganisms, Method B (tables I6-I11); type: cell-based; conditions: read-out: Efficacy %
Summary of the method: as §2

Diaporthe citri [10] = assay: in vitro-Test with fungal microorganisms, Method B (tables F12-F15); type: cell-based
Summary of the method: as §2

Cordana musae [11] = assay: in vitro-Test with fungal microorganisms, Method A (tables E1-E8); type: cell-based; conditions: Neocordana musae
Summary of the method: as §1

Fusarium culmorum [12] = assay: in vitro-Test with fungal microorganisms, Method B (tables G5-G15); type: cell-based; conditions: Fusarium culmorum, read-out: Efficacy
Summary of the method: as §2

Alternaria alternate = assay: in vitro-Test with fungal microorganisms, Method A (tables A1-A12); type: cell-based, Alternaria alternata
Summary of the method: as §1

Cercospora beticola [13] = assay: in vitro-Test with fungal microorganisms, Method B (tables C11-C20); type: cell-based; conditions: Cercospora beticola, read-out: Efficacy %
Summary of the method: as §2

Botrytis cinerea = assay: in vitro-Test with fungal microorganisms, Method A (tables B1-B14); type: cell-based; conditions: Botrytis cinerea
Summary of the method: as §1

[14] = read-out: Efficacy %, alone, 1.0 ppm
[15] = read-out: Efficacy %, alone, 5.0 ppm
[16] = read-out: Efficacy %, mixing partner alone, 0.04 ppm
[17] = read-out: Efficacy %, mixing partner alone, 0.2 ppm
[18] = read-out: Efficacy %, mixing partner alone, 1.0 ppm
[19] = read-out: Efficacy %, mixing partner alone, 5.0 ppm

N#Cc1c[nH]cc1-c1cccc2c1OC(F)(F)O2 [(13.001) fludioxonil, fludioxonil]
inhibition of growth at 0.04 ppm (Diaporthe citri [1]; read-out: Efficacy, applied alone, 0.04 ppm): 0% | inhibition of growth at 0.2 ppm (Diaporthe citri [1]; read-out: Efficacy, applied alone, 0.2 ppm): 0% | inhibition of growth at 0.2 ppm (Fusarium culmorum [2]; 0.2 ppm): 36% | inhibition of growth at 1 ppm (Fusarium culmorum [2]; 1.0 ppm): 98% | inhibition of growth at 5 ppm (Fusarium culmorum [2]; 5.0 ppm): 99% | inhibition of growth at 1 ppm (Parastagonospora nodorum [3]; read-out: Efficacy, 1 ppm): 58% | inhibition of growth at 5 ppm (Parastagonospora nodorum [3]; read-out: Efficacy, 5 ppm): 98% | Efficacy (Parastagonospora nodorum [4]; 0.04 ppm): 0% | Efficacy (Parastagonospora nodorum [4]; 0.2 ppm): 0% | Efficacy (Parastagonospora nodorum [4]; single active compound, 0.04 ppm): 0% | Efficacy (Parastagonospora nodorum [4]; single active compound, 0.2 ppm): 0% | Efficacy (Parastagonospora nodorum [4]; single active compound, 1.0 ppm): 38% | Efficacy (Parastagonospora nodorum [4]; single active compound, 5.0 ppm): 64% | Efficacy % (Cercospora beticola [5]; 5.0 ppm alone): 98% | inhibition of growth at 0.04 ppm (Cercospora beticola [5]; Cercospora beticola, read-out: Efficacy %, 0.04 ppm): 0% | inhibition of growth at 0.04 ppm (Cercospora beticola [5]; Cercospora beticola, read-out: Efficacy %, 0.04 ppm alone): 0% | inhibition of growth at 0.2 ppm (Cercospora beticola [5]; Cercospora beticola, read-out: Efficacy %, 0.2 ppm alone): 14% | inhibition of growth at 1 ppm (Cercospora beticola [5]; Cercospora beticola, read-out: Efficacy %, 1.0 ppm): 55% | inhibition of growth at 5 ppm (Cercospora beticola [5]; Cercospora beticola, read-out: Efficacy %, 5.0 ppm): 90% | inhibition of growth at 5 ppm (Cercospora beticola [5]; Cercospora beticola, read-out: Efficacy %, 5.0 ppm alone): 93% | inhibition of growth at 0.04 ppm (Cordana musae [6]; Neocordana musae, read-out: Efficacy): 6% | Efficacy % (Cordana musae [6]; 0.2 ppm): 0% | Efficacy % (Cordana musae [6]; 1 ppm): 0% | Efficacy % (Cordana musae [6]; 5 ppm): 11% | inhibition of growth at 0.04 ppm (Colletotrichum coccodes; read-out: Efficacy %, 0.04 ppm): 54% | inhibition of growth at 1 ppm (Colletotrichum coccodes; read-out: Efficacy %, 1 ppm): 100% | inhibition of growth at 5 ppm (Colletotrichum coccodes; read-out: Efficacy %, 5 ppm): 100% | inhibition of growth at 0.04 ppm (Colletotrichum coccodes; read-out: Efficacy %, single active compound at 0.04 ppm): 74% | inhibition of growth at 0.04 ppm ([7]; read-out: Efficacy %, alone, 0.04 ppm): 19% | inhibition of growth at 1 ppm [7, 14]: 100% | inhibition of growth at 5 ppm [7, 15]: 100% | inhibition of growth at 1 ppm (Alternaria alternata; read-out: Efficacy, 1 ppm): 88% | inhibition of growth at 5 ppm (Alternaria alternata; read-out: Efficacy, 5 ppm): 100% | inhibition of growth at 0.04 ppm (Alternaria alternata; read-out: Efficacy, single compound, 0.04 ppm): 13% | inhibition of growth at 0.2 ppm (Alternaria alternata; read-out: Efficacy, single compound, 0.2 ppm): 18% | inhibition of growth at 5 ppm (Alternaria alternata; read-out: Efficacy, single compound, 5 ppm): 99% | inhibition of growth at 0.04 ppm [8, 16]: 11% | inhibition of growth at 0.2 ppm [8, 17]: 60% | inhibition of growth at 1 ppm [8, 18]: 85% | inhibition of growth at 5 ppm [8, 19]: 90% | inhibition of growth at 0.04 ppm ([8]; read-out: Efficacy %, single active at 0.04 ppm): 0% | inhibition of growth at 0.2 ppm ([8]; read-out: Efficacy %, single active at 0.2 ppm): 58% | inhibition of growth at 5 ppm ([8]; read-out: Efficacy %, single active at 5.0 ppm): 88% | inhibition of growth at 0.04 ppm [9]: 55% | inhibition of growth at 0.2 ppm [9]: 93% | inhibition of growth at 5 ppm [9]: 100% | Efficacy (Diaporthe citri [10]; Table F12, 0.2 ppm alone): 0% | Efficacy (Diaporthe citri [10]; Table F12, 1 ppm alone): 9% | Efficacy (Diaporthe citri [10]; Table F13, 1 ppm alone): 41% | Efficacy (Diaporthe citri [10]; Table F13, 5 ppm alone): 0% | inhibition of growth at 0.04 ppm (Cordana musae [11]; [16]): 2% | inhibition of growth at 0.2 ppm (Cordana musae [11]; [17]): 0% | inhibition of growth at 1 ppm (Cordana musae [11]; [18]): 83% | inhibition of growth at 5 ppm (Cordana musae [11]; [19]): 55% | inhibition of growth at 0.04 ppm (Cordana musae [11]; read-out: Efficacy %, single substance, 0.04 ppm): 0% | inhibition of growth at 0.04 ppm (Fusarium culmorum [12]; alone): 0% | inhibition of growth at 0.2 ppm (Fusarium culmorum [12]; alone): 22% | inhibition of growth at 1 ppm (Fusarium culmorum [12]; alone): 68% | inhibition of growth at 5 ppm (Fusarium culmorum [12]; 5 ppm, alone): 98% | inhibition of growth at 0.04 ppm (Fusarium culmorum [12]; single active compound): 0% | inhibition of growth at 0.2 ppm (Fusarium culmorum [12]; single active compound): 26% | inhibition of growth at 1 ppm (Fusarium culmorum [12]; single active compound): 88% | inhibition of growth at 0.04 ppm (Alternaria alternate; Alternaria, read-out: Efficacy %, applied alone, 0.04 ppm): 9% | inhibition of growth at 0.2 ppm (Alternaria alternate; Alternaria, read-out: Efficacy %, applied alone, 0.2 ppm): 17% | inhibition of growth at 1 ppm (Alternaria alternate; Alternaria, read-out: Efficacy %, applied alone, 1.0 ppm): 97% | inhibition of growth at 5 ppm (Alternaria alternate; Alternaria, read-out: Efficacy %, applied alone, 5.0 ppm): 100% | Efficacy % (Alternaria alternate; applied alone, 0.04 ppm): 0% | inhibition of growth at 5 ppm (Cercospora beticola [13]): 93% | inhibition of growth at 0.2 ppm (Botrytis cinerea; read-out: Efficacy %, alone, 0.2 ppm): 100% | inhibition of growth at 1 ppm (Botrytis cinerea; [14]): 100% | inhibition of growth at 5 ppm (Botrytis cinerea; [15]): 100% | inhibition of growth at 0.04 ppm (Botrytis cinerea; read-out: Efficacy, 0.04 ppm): 19% | inhibition of growth at 0.2 ppm (Botrytis cinerea; read-out: Efficacy, 0.2 ppm): 100%
